Series [1] has as its system L. donovani-iRFP intramacrophage amastigotes. The series is described as follows: Ex vivo antileishmanial effect on intramacrophage amastigotes (infected murine splenocytes, iRFP fluorescence, 72 h). Format: cell-based. The settings on record: Leishmania donovani, Splenocyte. As for the experimental part: (§1) For efficacy studies, L. donovani-iRFP, a genetically modified strain of L. donovani LV9 constitutively expressing the gene encoding the infrared fluorescent protein (iRFP) ([Melcón-Fernández et al., 2023]), was used. This strain was grown as promastigotes in Schneider's insect medium (Sigma-Aldrich, Merck, Darmstadt, Germany) supplemented with 20 % (v/v) foetal bovine serum (FBS) (Gibco, ThermoFisher Scientific, Waltham, MA, USA) and […] antibiotic cocktail (100 U/mL penicillin and 100 μg/mL streptomycin) (Hyclone, ThermoFisher Scientific, Waltham, MA, USA) at 26 °C until mice were infected ([Carballeira et al., 2016]). Axenic and intramacrophage amastigotes were isolated from six-to eight-week-old female Balb/c mice (see below) that had been infected intraperitoneally with 1.5 × 10^9 metacyclic L. donovani-iRFP promastigotes. To obtain axenic amastigotes, bone marrow was extracted from the femur and tibia of 8- to 10-week-old infected mice and passed through a 100 μm cell strainer. After centrifugation at 3500 rcf for 10 min at room temperature, cell suspensions were resuspended in medium containing 15 mM KCl; 136 mM KH2PO4; 10 mM K2HPO4.3H2O; 0.5 mM MgSO4.7H2O; 24 mM NaHCO3; 22 mM glucose; 1 mM glutamine, 1 × RPMI 1640 vitamin mix (Sigma-Aldrich, Merck, Darmstadt, Germany), 10 mM folic acid, 100 mM adenosine, 1 × RPMI amino acid mix (Sigma-Aldrich, Merck, Darmstadt, Germany), 5 mg/mL hemin, 25 mM 2-morpholinoethanesulfonic acid (MES) pH 5.6, supplemented with 10 % FBS (Gibco, ThermoFisher Scientific, Waltham, MA, USA) and antibiotic cocktail, and incubated at 37 °C and 5 % CO2. To obtain intramacrophage amastigotes, spleens from infected Balb/c mice were cut into pieces, ground with 2 mg/mL collagenase D (Merck, Darmstadt, Germany) and passed through a 100 μm cell strainer. The splenocyte-enriched cell suspension containing intramacrophage amastigotes was resuspended in RPMI medium (Gibco, Fisher Scientific International Inc., Pittsburgh, PA, USA) supplemented with 20 % FBS, 1 mM sodium pyruvate, 24 mM NaHCO3, 2 mM L-glutamine, 1 × RPMI vitamins, 25 mM HEPES pH 7.2 and antibiotic cocktail ([Ashok et al., 2016]).
(§2) The antileishmanial effect of the nitrofurans selected in this study was tested both in vitro on axenic L. donovani-iRFP amastigotes and ex vivo on intramacrophage amastigotes according to previously published methods ([Melcón-Fernández et al., 2023], [2024]; [Andrés-Rodríguez et al., 2024]). Assays were performed in a final volume of […] containing 20,000 axenic amastigotes or a number of L. donovani-iRFP-infected murine splenocytes representing 150,000 relative fluorescence units (RFU), in each well of a black 384-well microtiter plate with optical bottom. In addition, 40 μL of one-half serial dilutions of each compound in amastigotes culture medium (for axenic amastigotes) or in supplemented RPMI medium (for intramacrophage amastigotes) were added to each well. Positive (amphotericin B at a final concentration of 18 μM) and negative (0.1 % v/v DMSO) controls were included on each plate. The plates were incubated at 37 °C and 5 % CO2 for a maximum of 72 h. Fluorescence emitted by viable L. donovani-iRFP was measured on an Odyssey infrared imaging system (Li-Cor, NE, USA).
(§3) All experiments were carried out in triplicate and included at least three technical replicates. […] The SI was calculated from the CC50/EC50 ratio.

Series [2] is described as follows: Cytotoxicity, alamarBlue, 72 h. Format: cell-based. The settings on record: human, HepG2 cells; 72 h, alamarBlue; read-out: HepG2 cells CC50. As for the experimental part:
For cytotoxicity tests, several mammalian cell lines were used. […] Primary cell cultures were also used to evaluate cytotoxicity. […] BMDM cells were differentiated for one week with 30 % […] from L929 cell line.
The in vitro cytotoxicity of the selected nitrofurans was evaluated in HepG2, RAW 264.7 cells, splenocytes and BMDM. In each well of a 96-well microtitre plate, 100 μL containing 10,000 HepG2 or RAW 264.7 cells were incubated for 24h at 37 °C and 5 % CO2 to allow the cells to settle. For primary cells, 100 μL containing 100,000 BMDM or 1,000,000 splenocytes were added to each well. Subsequently, […] of one-half serial dilutions of each compound diluted in DMEM (for HepG2 cells), RPMI medium (for RAW cells), splenocyte medium (for splenocytes) or BMDM medium supplemented with 10 % GM-CSF (for BMDM), were added to each well. The cytotoxic effect of the compounds was measured after 72 h of incubation at 37 °C and 5 % CO2. For this purpose, a 10 % (v/v) of the alamarBlue™ cell viability reagent (Invitrogen, Fisher Scientific International Inc., Pittsburgh, PA, USA) was added, and the reaction was incubated for 4 h at 37 °C and 5 % CO2. Fluorescence was measured using a Varioskan Lux spectrophotometer (ThermoFisher Scientific, Waltham, MA, USA). Positive controls consisting of 0.1 % (v/v) H2O2, and negative controls, consisting of 0.1 % (v/v) DMSO, were also included on each plate.
as §3
In general terms: The colour change of resazurin is a common sign of viable cells or microbes.

The test system of series [3] is L. donovani-iRFP axenic amastigotes. In words: Antileishmanial effect on axenic amastigotes (iRFP fluorescence viability, 72 h). It counts as cell-based. Conditions: Leishmania donovani. As for the experimental part: as §1, §2, §3
In series [4] the test system is S. typhimurium TA100. The series is described as follows: Ames mutagenicity test (Ames 384-ISO Well Test). The settings on record: for Mutagenic effect TA100-S9: with metabolic activation (S9 mix); for Mutagenic effect TA100: without S9 mix. Background: The Ames test uses bacterial strains that need an amino acid and regain growth without it when mutated back.

In the case of `N#Cc1ccc([N+](=O)[O-])o1` [5-nitro-2-furonitrile, 5-Nitro-2-furonitrile], the results for the EC50 in series [1] and in series [3] were 1450 ± 110 nM and 700 ± 50 nM, respectively. Also, the CC50 (in general, the concentration giving 50% cytotoxicity) at 72 h in series [2] is 21700 ± 390 nM.

On to `O=C1CN(/N=C/c2ccc([N+](=O)[O-])o2)C(=O)N1` [Nitrofurantoin], for which the 50% effective concentration (EC50) – broadly, the concentration at which the effect is half-maximal – worked out at 2100 ± 260 nM in series [1] and 1460 ± 80 nM in series [3]. Further, in series [2], the CC50 at 72 h worked out at 32000 ± 4580 nM.

As to `O=C1NN(c2ccc(F)c(Cl)c2)C(=O)C1=Cc1ccc([N+](=O)[O-])o1` [PYZD-4409, 1-(3-chloro-4-fluorophenyl)-4-[(5-nitro-2-furyl)methylene]-3,5-pyrazolidinedione], the EC50 in series [1] is over 100000 nM; in series [3], 1270 ± 40 nM. For the same compound, in series [2], the CC50 at 72 h is 16300 ± 560 nM.

`NC(=O)N/N=C/c1ccc([N+](=O)[O-])o1` [Nitrofurazone]: the EC50 in series [1] amounted to 490 ± 110 nM; in series [3], 490 ± 30 nM. Also, the “Mutagenic effect TA100-S9” value in series [4] (0.5 μM) is reported as “+ (0.05)”; in series [4] (5.0 μM) it was “+ (0.001)”; in series [4] (50.0 μM), “- ^b”. Besides, the figures for the “Mutagenic effect TA100” value in series [4] (0.5 μM), in series [4] (5.0 μM) and in series [4] (50.0 μM) were “+ (0.001)”, “+ (0.05)” and “- ^b”, respectively. Also, in series [2], the CC50 at 72 h was 65500 ± 9670 nM.

The values are drawn from PMC12344264, “Mechanistic, in-silico and in vitro studies with nitrofurans reveal potent leishmanicidal activity and inhibition of trypanothione reductase” (International Journal for Parasitology: Drugs and Drug …, 2025).
